The source of these data is patent US20230064983A1 (priority 2020, published 2023).

By IC50 is commonly meant the midpoint of a concentration-inhibition curve. Low values mean greater potency in that assay, high ones weaker potency in that assay.

Test [1] concerns the target T1, EGFR with insertion SVD between D770 and N771 (mutEGFR D770_N771insSVD) (Homo sapiens, UniProt P00533, DUP768-770).
T1 construct: amino acids R669 to A1210; made in house; host or cells: Sf9 insect cells (baculovirus)
As to the kind of experiment: Exon20-Mutant-EGFR(D770_N771insSVD) kinase assay (TR-FRET). It counts as biochemical. The settings on record: 2 mM ATP, Table 2. On the technique in general: In TR-FRET formats the signal depends on donor and acceptor labels being close together.

Another test addresses T2, Bub1 (Homo sapiens, UniProt O43683).
T2 construct: catalytic domain of human Bub1 (amino acids 704-1085); His6 (N); made in house; host or cells: insect cells (Hi5)
As to the kind of experiment: Bub1 high ATP kinase assay (TR-FRET). The settings on record: Bub1 high ATP (2 mM) IC50, TR-FRET, 2 mM ATP; Table 3. The format is biochemical. An excerpt: Bub1 high ATP Kinase Assay
Bub1-inhibitory activity of compounds of the present invention at a high ATP concentration was quantified employing the Bub1 TR-FRET high ATP kinase assay as described in the following paragraphs.
N-terminally His6-tagged recombinant catalytic domain of human Bub1 (amino acids 704-1085), expressed in insect cells (Hi5) and purified by Ni-NTA affinity chromatography and subsequent size exclusion chromatography, was used as enzyme. As substrate for the kinase reaction the biotinylated peptide biotin-Ahx-[…] (C-terminus in amid form) was used which can be purchased e.g. form the company Biosyntan (Berlin, Germany).
Then the kinase reaction was started by the addition of 2 μl of a solution of Bub1 in assay buffer and the resulting mixture was incubated for a reaction time of 60 min at 22° C. The concentration of Bub1 was adjusted depending of the activity of the enzyme lot and was chosen appropriate to have the assay in the linear range, a typical concentration is about 200 ng/ml. The reaction was stopped by the addition of 3 μl of a solution of TR-FRET detection reagents (0.167 μM streptavidine-XL665 [Cisbio Bioassays, Codolet, France] and 1.67 nM anti-phosho-Serine antibody [Merck Millipore, cat. #35-002] and 0.67 nM LANCE EU-W1024 labeled anti-mouse IgG antibody [Perkin-Elmer, product no. AD0077, as an alternative a Terbium-cryptate-labeled anti-mouse IgG antibody from Cisbio Bioassays can be used]) in an aqueous EDTA-solution (83.3 mM EDTA, 0.2% (w/v) bovine serum albumin in 100 mM HEPES pH 7.5).
The resulting mixture was incubated 1 h at 22° C. to allow the formation of complex between the phosphorylated biotinylated peptide and the detection reagents. Subsequently the amount of phosphorylated substrate was evaluated by measurement of the resonance energy transfer from the Eu-chelate to the streptavidine-XL. Therefore, the fluorescence emissions at 620 nm and 665 nm after excitation at 350 nm was measured in a TR-FRET reader, e.g. a Pherastar or Pherastar FS (both from BMG Labtechnologies, Offenburg, Germany) or a Viewlux (Perkin-Elmer). The ratio of the emissions at 665 nm and at 622 nm was taken as the measure for the amount of phosphorylated substrate.

Test [2] has as its target Ba/F3-EGFR-D770_N771insSVD cells (Homo sapiens, UniProt P00533, DUP768-770, cells depend on it). As to the kind of experiment: Ba/F3 cell survival assay, EGFR D770_N771insSVD. It counts as cell-based. The conditions noted are these: Cell Titer-Glo, 48 h, without IL-3; Table 4; read-out: BA/F3 (insSVD) IC50. A general note: In ATP-based viability assays light output follows the ATP content of the culture.

The target in a further test is Ba/F3-EGFR-WT cells (Homo sapiens, UniProt P00533). As to the kind of experiment: Ba/F3 cell survival assay, wild type EGFR. It counts as cell-based. The settings on record: Cell Titer-Glo, 48 h, with 10 ng/mL EGF; Table 4; read-out: BA/F3 (wild type) IC50.
Ba/F3-EGFR-WT cells, sequence (P00533 whole entry, looked up, change not shown): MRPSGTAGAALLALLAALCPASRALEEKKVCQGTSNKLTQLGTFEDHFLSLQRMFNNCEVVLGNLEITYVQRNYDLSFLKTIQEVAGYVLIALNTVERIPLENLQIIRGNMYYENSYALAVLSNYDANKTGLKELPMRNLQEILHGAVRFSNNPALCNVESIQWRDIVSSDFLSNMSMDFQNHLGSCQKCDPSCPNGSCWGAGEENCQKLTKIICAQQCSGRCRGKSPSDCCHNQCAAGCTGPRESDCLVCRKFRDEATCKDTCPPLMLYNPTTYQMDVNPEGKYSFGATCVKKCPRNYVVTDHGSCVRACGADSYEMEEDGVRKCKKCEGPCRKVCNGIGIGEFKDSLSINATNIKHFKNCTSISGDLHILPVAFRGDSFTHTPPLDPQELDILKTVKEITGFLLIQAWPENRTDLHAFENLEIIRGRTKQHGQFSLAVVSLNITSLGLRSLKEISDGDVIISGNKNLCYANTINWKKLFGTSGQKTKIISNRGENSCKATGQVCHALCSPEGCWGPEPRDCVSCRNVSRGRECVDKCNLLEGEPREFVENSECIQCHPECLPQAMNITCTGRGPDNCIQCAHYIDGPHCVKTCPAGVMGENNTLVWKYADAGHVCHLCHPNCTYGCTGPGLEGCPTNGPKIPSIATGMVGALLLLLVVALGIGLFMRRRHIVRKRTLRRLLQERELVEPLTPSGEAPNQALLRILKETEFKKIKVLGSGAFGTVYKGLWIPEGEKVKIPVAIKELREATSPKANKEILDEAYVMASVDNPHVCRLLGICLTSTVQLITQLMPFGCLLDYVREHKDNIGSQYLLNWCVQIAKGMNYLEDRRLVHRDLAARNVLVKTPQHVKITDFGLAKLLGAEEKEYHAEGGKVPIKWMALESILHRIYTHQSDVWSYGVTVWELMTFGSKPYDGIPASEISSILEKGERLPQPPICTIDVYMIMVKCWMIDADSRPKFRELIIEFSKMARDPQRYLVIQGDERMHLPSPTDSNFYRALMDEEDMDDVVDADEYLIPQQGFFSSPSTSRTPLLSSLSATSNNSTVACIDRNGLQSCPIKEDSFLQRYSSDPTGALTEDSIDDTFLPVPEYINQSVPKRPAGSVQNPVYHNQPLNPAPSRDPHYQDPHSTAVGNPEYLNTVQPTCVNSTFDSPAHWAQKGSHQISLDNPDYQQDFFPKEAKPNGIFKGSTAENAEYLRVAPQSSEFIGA

Where “and” joins values, the source holds several entries; their conditions need not be identical. Equal values may be shown once.

T2 sequence (O43683 704-1085): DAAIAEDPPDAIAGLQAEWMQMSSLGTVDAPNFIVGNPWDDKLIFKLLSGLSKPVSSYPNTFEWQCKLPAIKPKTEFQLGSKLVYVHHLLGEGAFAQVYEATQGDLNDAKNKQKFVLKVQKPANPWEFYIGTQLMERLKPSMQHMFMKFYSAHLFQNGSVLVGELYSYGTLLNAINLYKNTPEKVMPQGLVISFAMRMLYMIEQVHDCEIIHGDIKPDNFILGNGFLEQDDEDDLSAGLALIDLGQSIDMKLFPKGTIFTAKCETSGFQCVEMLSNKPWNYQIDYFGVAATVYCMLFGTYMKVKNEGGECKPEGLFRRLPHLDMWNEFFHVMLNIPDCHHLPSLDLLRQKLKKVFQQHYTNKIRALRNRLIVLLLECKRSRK
Ba/F3-EGFR-D770_N771insSVD cells, sequence (P00533 with tags, fused parts or gaps DUP768-770): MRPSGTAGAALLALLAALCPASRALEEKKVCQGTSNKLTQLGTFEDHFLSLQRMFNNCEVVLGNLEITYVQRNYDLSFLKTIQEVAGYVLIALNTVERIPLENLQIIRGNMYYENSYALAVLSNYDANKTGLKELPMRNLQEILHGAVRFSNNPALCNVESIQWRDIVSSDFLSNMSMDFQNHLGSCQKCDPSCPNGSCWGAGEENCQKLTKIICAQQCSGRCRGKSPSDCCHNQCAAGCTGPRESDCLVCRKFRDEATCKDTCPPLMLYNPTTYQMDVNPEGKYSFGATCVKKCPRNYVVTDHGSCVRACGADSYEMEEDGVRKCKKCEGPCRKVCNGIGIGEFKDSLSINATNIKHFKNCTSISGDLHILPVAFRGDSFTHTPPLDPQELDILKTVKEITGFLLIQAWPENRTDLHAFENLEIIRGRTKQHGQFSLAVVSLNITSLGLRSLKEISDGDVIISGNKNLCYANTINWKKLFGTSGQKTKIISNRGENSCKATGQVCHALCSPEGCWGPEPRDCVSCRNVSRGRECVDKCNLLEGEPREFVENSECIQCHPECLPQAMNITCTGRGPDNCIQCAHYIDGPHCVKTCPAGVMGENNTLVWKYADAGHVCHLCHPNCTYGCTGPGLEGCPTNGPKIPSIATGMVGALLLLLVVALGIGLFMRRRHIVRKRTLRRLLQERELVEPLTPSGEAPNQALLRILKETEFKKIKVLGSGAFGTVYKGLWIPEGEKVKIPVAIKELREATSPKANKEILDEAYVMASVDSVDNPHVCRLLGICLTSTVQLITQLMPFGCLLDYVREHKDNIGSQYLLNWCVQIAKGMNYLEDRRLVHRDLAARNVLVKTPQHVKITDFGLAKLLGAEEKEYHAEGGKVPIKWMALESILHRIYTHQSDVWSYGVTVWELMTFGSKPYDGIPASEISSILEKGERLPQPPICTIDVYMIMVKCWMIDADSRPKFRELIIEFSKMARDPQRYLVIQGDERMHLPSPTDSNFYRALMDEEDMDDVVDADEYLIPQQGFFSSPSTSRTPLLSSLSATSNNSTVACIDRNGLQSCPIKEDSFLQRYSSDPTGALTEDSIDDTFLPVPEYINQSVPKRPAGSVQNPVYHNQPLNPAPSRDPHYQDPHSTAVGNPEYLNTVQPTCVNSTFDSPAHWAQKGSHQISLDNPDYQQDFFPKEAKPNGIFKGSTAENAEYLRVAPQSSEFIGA
T1 sequence (P00533 other isoform, or with tags, fused parts or gaps DUP768-770): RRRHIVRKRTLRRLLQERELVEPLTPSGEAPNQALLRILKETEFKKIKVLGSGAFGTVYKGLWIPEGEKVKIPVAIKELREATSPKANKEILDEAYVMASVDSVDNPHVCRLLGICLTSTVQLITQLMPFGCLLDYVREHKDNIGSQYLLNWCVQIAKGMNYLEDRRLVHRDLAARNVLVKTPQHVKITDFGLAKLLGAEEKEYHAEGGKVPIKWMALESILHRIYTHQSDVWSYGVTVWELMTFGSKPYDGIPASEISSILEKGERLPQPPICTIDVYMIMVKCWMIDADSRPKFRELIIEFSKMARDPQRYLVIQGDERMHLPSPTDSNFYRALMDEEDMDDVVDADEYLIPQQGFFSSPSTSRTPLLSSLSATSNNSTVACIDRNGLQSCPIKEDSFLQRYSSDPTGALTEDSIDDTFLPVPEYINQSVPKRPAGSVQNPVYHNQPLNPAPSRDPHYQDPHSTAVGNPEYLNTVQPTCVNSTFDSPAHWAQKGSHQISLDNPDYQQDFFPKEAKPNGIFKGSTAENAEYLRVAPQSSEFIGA

Regarding `COc1c(Cl)cccc1Nc1c(-c2ccncc2OC[C@@H]2CCCO2)[nH]c2c1C(=O)NC(C)C2` (mixture of isomers) [Example 3, 3-(3-chloro-2-methoxyanilino)-6-methyl-2-(3-{[(2S)-oxolan-2-yl]methoxy}pyridin-4-yl)-1,5,6,7-tetrahydro-4H-pyrrolo[3,2-c]pyridin-4-one], the “mutEGFR (D770_N771insSVD) kinase assay IC50” value (“mutEGFR” for short) in test [1] is 0.0854 nM. On Bub1, the midpoint of inhibition, the IC50, lay at 5390 nM. Moreover, the GI50 in test [2] turned out to be 28.5 nM; at Ba/F3-EGFR-WT cells, 328 nM.

With `COc1c(F)cccc1Nc1c(-c2ccncc2OC[C@@H]2CCCO2)[nH]c2c1C(=O)NC(C)C2` (mixture of isomers) [Example 8, 3-(3-fluoro-2-methoxyanilino)-6-methyl-2-(3-{[(2S)-oxolan-2-yl]methoxy}pyridin-4-yl)-1,5,6,7-tetrahydro-4H-pyrrolo[3,2-c]pyridin-4-one], the “mutEGFR” value in test [1] was 0.246 nM. At Bub1, the IC50 is 12800 nM and 9720 nM and > 20000 nM. Further, the figures for the GI50 (in test [2]; on Ba/F3-EGFR-WT cells) were 73.3 nM and 623 nM, respectively.

For `COc1c(Cl)cccc1Nc1c(-c2ccncc2OC[C@@H]2CCCO2)[nH]c2c1C(=O)NCC2CCO` (mixture of isomers) [Example 16, 3-(3-chloro-2-methoxyanilino)-7-(2-hydroxyethyl)-2-(3-{[(2S)-oxolan-2-yl]methoxy}pyridin-4-yl)-1,5,6,7-tetrahydro-4H-pyrrolo[3,2-c]pyridin-4-one], the “mutEGFR” value in test [1] came out at 0.413 nM. Also, the IC50 against Bub1 is more than 20000 nM. Also, the figures for the GI50 (in test [2]; on Ba/F3-EGFR-WT cells) were 63.8 nM and 644 nM, respectively.

Regarding `COc1c(Cl)cccc1Nc1c(-c2ccncc2OCC2COCCO2)[nH]c2c1C(=O)N[C@H](C)C2` (mixture of isomers) [Example 24, (6R)-3-(3-chloro-2-methoxy-anilino)-2-[3-(1,4-dioxan-2-ylmethoxy)-4-pyridyl]-6-methyl-1,5,6,7-tetrahydropyrrolo[3,2-c]pyridin-4-one], the “mutEGFR” value in test [1] is 0.111 nM and <0.0725 nM. The same compound yielded an IC50 against Bub1 of 3480 nM. The GI50 in test [2] was found to be 20.8 nM; at Ba/F3-EGFR-WT cells it was 500 nM.

Consider `COc1c(Cl)cccc1Nc1c(-c2ccncc2OCC2CCCCO2)[nH]c2c1C(=O)N[C@H](C)C2` (mixture of isomers) [Example 27, (6R)-3-(3-chloro-2-methoxy-anilino)-6-methyl-2-[3-(tetrahydropyran-2-ylmethoxy)-4-pyridyl]-1,5,6,7-tetrahydropyrrolo[3,2-c]pyridin-4-one], for which the “mutEGFR” value in test [1] is 0.0973 nM. At Bub1, this compound displayed an IC50 of more than 5700 nM. The figures for the GI50 (in test [2]; at Ba/F3-EGFR-WT cells) were 12 nM and 305 nM, respectively.

Take `COc1c(Cl)cccc1Nc1c(-c2ccncc2OC[C@@H]2CCCO2)[nH]c2c1C(=O)NCC2C` (mixture of isomers) [Example 30, 3-(3-chloro-2-methoxy-anilino)-7-methyl-2-(3-{[(2S)-tetrahydrofuran-2-yl]methoxy}-4-pyridyl)-1,5,6,7-tetrahydropyrrolo[3,2-c]pyridin-4-one]: the “mutEGFR” value in test [1] amounted to 0.147 nM. The compound also had an IC50 against Bub1 of 11300 nM. Besides, the GI50 came out at 44 nM in test [2] and 606 nM at Ba/F3-EGFR-WT cells.

Take `COc1c(Cl)cccc1Nc1c(-c2ccncc2OC[C@@H]2CCCO2)[nH]c2c1C(=O)NC(C(F)(F)F)C2` (mixture of isomers) [Example 38, 3-(3-chloro-2-methoxy-anilino)-2-(3-{[(2S)-tetrahydrofuran-2-yl]methoxy}-4-pyridyl)-6-(trifluoromethyl)-1,5,6,7-tetrahydropyrrolo[3,2-c]pyridin-4-one]: the “mutEGFR” value in test [1] stood at 0.188 nM. Moreover, the 50% inhibitory concentration (IC50) against Bub1 was 628 nM. The GI50 in test [2] is 138 nM; at Ba/F3-EGFR-WT cells, 996 nM.

In the case of `COCC(C)Oc1cnccc1-c1[nH]c2c(c1Nc1cccc(Cl)c1OC)C(=O)N[C@H](C)C2` (mixture of isomers) [Example 41, (6R)-3-(3-chloro-2-methoxy-anilino)-2-{3-[(1-methoxypropan-2-yl)oxy]-4-pyridyl}-6-methyl-1,5,6,7-tetrahydropyrrolo[3,2-c]pyridin-4-one], in test [1], the “mutEGFR” value turned out to be 0.178 nM. In addition, half-maximal inhibition at Bub1 (IC50) was put at 17000 nM. Moreover, the GI50 is 39.8 nM in test [2] and 479 nM on Ba/F3-EGFR-WT cells.

Consider `COc1c(Cl)cccc1Nc1c(-c2ccncc2OCC2COCCO2)[nH]c2c1C(=O)N[C@@H]1CCC[C@H]21` (mixture of isomers) [Example 52, (5aR,8aS)-3-(3-chloro-2-methoxyanilino)-2-{3-[(1,4-dioxan-2-yl)methoxy]-4-pyridyl}-5,5a,6,7,8,8a-hexahydrocyclopenta[b]pyrrolo[2,3-d]pyridin-4(1)-one], for which the “mutEGFR” value in test [1] came out at 0.142 nM. Further, on Bub1, the 50% inhibitory concentration (IC50) worked out at 10000 nM. Further, the GI50 in test [2] is 38.9 nM; on Ba/F3-EGFR-WT cells, 407 nM.

Regarding `Cc1c(Cl)cccc1Nc1c(-c2ccncc2OC[C@@H]2CCCO2)[nH]c2c1C(=O)NCC2C` (mixture of isomers) [Example 58, 3-(3-chloro-2-methyl-anilino)-7-methyl-2-(3-{[(2S)-oxolan-2-yl]methoxy}pyridin-4-yl)-1,5,6,7-tetrahydropyrrolo[3,2-c]pyridin-4-one], in test [1], the “mutEGFR” value came to 0.148 nM. For the same compound, 3360 nM corresponded to half-maximal inhibition at Bub1 (IC50). For the same compound, the GI50 in test [2] was 72.9 nM; on Ba/F3-EGFR-WT cells it was 1250 nM.

`COc1c(Cl)cccc1Nc1c(-c2ccncc2OCC2OCCC2(F)F)[nH]c2c1C(=O)N[C@H](C)C2` (mixture of isomers) [Example 71, (6R)-3-(3-chloro-2-methoxy-anilino)-2-{3-[(3,3-difluorotetrahydrofuran-2-yl)methoxy]-4-pyridyl}-6-methyl-1,5,6,7-tetrahydropyrrolo[3,2-c]pyridin-4-one]: the “mutEGFR” value in test [1] came to 0.186 nM. This compound showed an IC50 on Bub1 of 5740 nM. Besides, the figures for the GI50 (in test [2]; on Ba/F3-EGFR-WT cells) were 42.9 nM and 731 nM, respectively.

For the compound `COc1c(Cl)cccc1Nc1c(-c2ccncc2OCC2OCCCC2(F)F)[nH]c2c1C(=O)N[C@H](C)C2` (mixture of isomers) [Example 74, (6R)-3-(3-chloro-2-methoxy-anilino)-2-{3-[(3,3-difluorotetrahydropyran-2-yl)methoxy]-4-pyridyl}-6-methyl-1,5,6,7-tetrahydropyrrolo[3,2-c]pyridin-4-one], the “mutEGFR” value in test [1] came out at 0.242 nM. The compound further returned a concentration for half-maximal inhibition (IC50) at Bub1 of more than 20000 nM. Further, the GI50 in test [2] was 14 nM; at Ba/F3-EGFR-WT cells, 457 nM.

As for `COc1c(Cl)cccc1Nc1c(-c2ccncc2OC[C@@H]2CCCO2)[nH]c2c1C(=O)NCC2C` (single isomer, unassigned) [Example 32], half-maximal inhibition on Bub1 (IC50) was put at 3640 nM. In addition, the GI50 in test [2] is 52.7 nM; at Ba/F3-EGFR-WT cells it was 737 nM.

`COc1c(Cl)cccc1Nc1c(-c2ccncc2OC[C@@H]2COCCN2C)[nH]c2c1C(=O)NCC2CCO` (single isomer, unassigned) [Example 115]: the “mutEGFR” value in test [1] amounted to 0.456 nM. The compound also displayed an IC50 against Bub1 of 13200 nM. On Ba/F3-EGFR-WT cells, the GI50 turned out to be 5420 nM.
